pIC50: −log10 of the molar value.
Experiments:
[1] = Phase I safety: adverse events (CTCAE v3.0)
Experimental: Adverse events were recorded and graded according to the Common Terminology Criteria for Adverse Events, version 3.0.
Physical examinations, urinalysis, ECG, and laboratory evaluations (including serum chemistry and hematology) were performed at screening and on days 1, 2, 8, 15, 22, and 29 of cycle 1; on days 1, 15, and 29 of subsequent cycles; and at the end-of-treatment follow-up visit (14 days after the last dose). Adverse events were evaluated on days 2, 8, 15, and 22 of cycle 1; on days 1, 15, and 29 of every subsequent cycle; and at the end-of-treatment follow-up visit.

VEGFR-1 = tested on: VEGFR-1; design: method as in PMID 22148921; conditions: in vitro; cited from earlier work
proto-oncogene c-SRC = tested on: proto-oncogene c-SRC; design: method as in PMID 22148921; conditions: cited from earlier work
[2] = biological target: fibroblast growth factor receptor-1; design: method as in PMID 22148921; conditions: cited from earlier work
[3] = Plasma pharmacokinetics in patients, single and multiple doses; type: in vivo, human
Experimental: Pharmacokinetic parameters calculated after multiple doses included AUC0-t, Cmax, Tmax, and t½, and observed accumulation ratio (Robs). […] Pharmacodynamics was assessed by VEGFR-2/KDR inhibitory activity in response to CEP-11981 treatment. […] The venous blood samples for pharmacokinetic-pharmacodynamic analysis were collected on days 1 and 15 of dosing during cycle 1 immediately before dose administration and at 1 h postdose, and on day 43. At each draw, 2 samples were obtained in 6-mL sodium heparinized vacutainers. Plasma was obtained and stored at −70 °C until shipment to the sponsor for analysis.

[4] = multiple doses (day 15, cycle 1), oral once daily, 3.0 mg/m^2, n = 3
[5] = multiple doses (day 15, cycle 1), oral once daily, 4.2 mg/m^2, n = 3
[6] = multiple doses (day 15, cycle 1), oral once daily, 5.9 mg/m^2, n = 5
[7] = multiple doses (day 15, cycle 1), oral once daily, 11.8 mg/m^2, n = 3
[8] = multiple doses (day 15, cycle 1), oral once daily, 19.7 mg/m^2, n = 3
[9] = multiple doses (day 15, cycle 1), oral once daily, 29.6 mg/m^2, n = 4
[10] = multiple doses (day 15, cycle 1), oral once daily, 41.4 mg/m^2, n = 3

11-(2-methylpropyl)-12,13-dihydro-2-methyl-8-(pyrimidin-2-ylamino)-4H-indazolo[5,4-a]pyrrolo[3,4-c]carbazol-4-one [CEP-11981]
Grade 3/4 adverse events ([1]; 3.0 mg/m^2 n = 3): • Abdominal pain • Arthralgia • Back pain
Grade 3/4 adverse events ([1]; 4.2 mg/m^2 n = 3): • Abdominal pain
Grade 3/4 adverse events ([1]; 5.9 mg/m^2 n = 5): • Hyperkalemia
Grade 3/4 adverse events ([1]; 19.7 mg/m^2 n = 3): • Back pain • Hypokalemia • Hyponatremia • Lumbar vertebral fracture
Grade 3/4 adverse events ([1]; 55.0 mg/m^2 n = 5): • Abdominal pain • Anxiety • Arthralgia • Back pain • Cellulitis • Constipation • Hypokalemia • Impaired healing • Musculo-skeletal pain • Peripheral edema • Scrotal edema • Somnolence
Grade 3/4 adverse events ([1]; 73.0 mg/m^2 n = 3): • Anemia • Leukopenia • Diarrhea • Decreased appetite • Musculo-skeletal pain • Neck pain • Headache • Pleural effusion
Grade 4 leukopenia ([1]; 126.6 mg/m^2 cohort): 1 patient
Grade 4 neutropenia ([1]; 126.6 mg/m^2 cohort): 1 patient
Grade 3/4 adverse events ([1]; 126.6 mg/m^2 n = 2, ^b treatment-related): • Neutropenia^b • ECG change
Grade 3/4 abdominal pain ([1]; across all groups): 7%
Grade 3/4 back pain ([1]; across all groups): 7%
Grade 3/4 lymphopenia ([1]; across all groups): 19%
Grade 3/4 neutropenia ([1]; across all groups): 7%
Patients with ECG changes ([1]; all cohorts): 2%
Patients with hypertension ([1]; all cohorts): 2%
Abdominal pain, any grade ([1]; all cohorts, N = 43): 30%
Back pain, any grade ([1]; all cohorts, N = 43): 28%
Constipation, any grade ([1]; all cohorts, N = 43): 28%
Deaths during the study ([1]; all cohorts, N = 43): No deaths occurred
Decreased appetite, any grade ([1]; all cohorts, N = 43): 33%
Diarrhea, any grade ([1]; all cohorts, N = 43): 33%
Dizziness, any grade ([1]; all cohorts, N = 43): 28%
Dyspnea, any grade ([1]; all cohorts, N = 43): 23%
Fatigue, any grade ([1]; all cohorts, N = 43): 51%
Headache, any grade ([1]; all cohorts, N = 43): 28%
Nausea, any grade ([1]; all cohorts, N = 43): 47%
Patients with adverse events possibly, probably, or definitely related to study drug ([1]; all cohorts, N = 43): 88.3%
Patients with grade 3 adverse events ([1]; all cohorts, N = 43): 32.6%
Patients with grade 3 or 4 adverse events ([1]; all cohorts, N = 43): 37%
Patients with grade 3 or 4 laboratory hematologic toxicities ([1]; all cohorts, N = 43): 18.6%
Patients with grade 4 adverse events ([1]; all cohorts, N = 43): 4.7%
Patients with ≥ 1 adverse event ([1]; all cohorts, N = 43): 43 patients
Serious adverse events ([1]; all cohorts, N = 43): 12 patients
Vomiting, any grade ([1]; all cohorts, N = 43): 28%
pIC50 (VEGFR-1): 8.52
pIC50 (proto-oncogene c-SRC): 7.43
pIC50 [2]: 7.89
Mean (SD) AUC0-24 ([3]; human, in vivo, po, 97.4 mg/m2): 5,320.4 (1,459.11) ng•hr/mL
Mean (SD) Cmax ([3]; human, in vivo, po, 97.4 mg/m2): 526.4 (185.68) ng/mL
Mean (SD) t½ ([3]; human, in vivo, po, 97.4 mg/m2): 10.3 (4.59) hr
Median (range) Tmax ([3]; human, in vivo, po, 97.4 mg/m2): 4.0 (2.0–6.0) hr
Mean (SD) AUCτ [3, 4]: 165.3 (82.98) ng•hr/mL
Mean (SD) Cmax [3, 4]: 16.1 (2.35) ng/mL
Mean (SD) t½ [3, 4]: 8.0 (2.92) hr
Median (range) Tmax [3, 4]: 2.9 (1.5–4.0) hr
Mean (SD) AUCτ [3, 5]: 201.7 (46.72) ng•hr/mL
Mean (SD) Cmax [3, 5]: 24.3 (9.23) ng/mL
Mean (SD) t½ [3, 5]: 9.9 (4.55) hr
Median (range) Tmax [3, 5]: 3.9 (1.5–4.0) hr
Mean (SD) AUCτ [3, 6]: 278.0 (69.45) ng•hr/mL
Mean (SD) Cmax [3, 6]: 32.4 (8.40) ng/mL
Mean (SD) t½ [3, 6]: 6.6 (1.51) hr
Median (range) Tmax [3, 6]: 3.0 (1.3–6.0) hr
Mean (SD) AUCτ [3, 7]: 763.7 (128.14) ng•hr/mL
Mean (SD) Cmax [3, 7]: 98.1 (5.64) ng/mL
Mean (SD) t½ [3, 7]: 12.3 (9.70) hr
Median (range) Tmax [3, 7]: 2.0 (1.6–2.1) hr
Mean (SD) AUCτ [3, 8]: 1,102.3 (734.79) ng•hr/mL
Mean (SD) Cmax [3, 8]: 128.5 (98.34) ng/mL
Mean (SD) t½ [3, 8]: 5.4 (1.20) hr
Median (range) Tmax [3, 8]: 4.0 (1.5–4.0) hr
Mean (SD) AUCτ [3, 9]: 2,923.5 (2,939.79) ng•hr/mL
Mean (SD) Cmax [3, 9]: 218.8 (130.35) ng/mL
Mean (SD) t½ [3, 9]: 8.7 (5.74) hr
Median (range) Tmax [3, 9]: 4.5 (2.0–8.0) hr
Mean (SD) AUCτ [3, 10]: 3,256.0 (1,816.44) ng•hr/mL
Mean (SD) Cmax [3, 10]: 412.6 (93.94) ng/mL
Mean (SD) t½ [3, 10]: 10.3 (6.33) hr
Median (range) Tmax [3, 10]: 2.1 (1.7–3.1) hr
Mean (SD) AUCτ ([3]; multiple doses (day 15, cycle 1), oral once daily, 55.0 mg/m^2, n = 4): 4,313.3 (1,091.33) ng•hr/mL
